According to ChEMBL document CHEMBL1806468, “A facile synthesis of 1,5-disubstituted-2-aminoimidazoles: antibiotic activity of a first generation library” (2011):
Active and inactive are the calls of the source. No cut-off for these calls is given here.

test system: Staphylococcus aureus; test: Antimicrobial activity against methicillin-susceptible Staphylococcus aureus ATCC 29213 after 16 hrs by broth microdilution method; assay type: functional; conditions: ATCC 29213, 16 h

Going from `CCCCCCc1cnc(N)n1CCCCC.Cl` to `CCCCCCCCn1c(CCCCCC)cnc1N.Cl`, the MIC falls from 32 µg/mL to 2 µg/mL (16-fold).

First: CCCCCn1c(Cc2ccccc2)cnc1N.Cl
Second: CCCCCCCCn1c(Cc2ccccc2)cnc1N.Cl
The MIC of the first is 2-fold lower: 64 µg/mL for the first, 128 µg/mL for the second.

First: Cl.Nc1ncc(-c2ccccc2)n1CCCc1ccccc1
Second: CCCCCn1c(-c2ccccc2)cnc1N.Cl
The MIC of the first is 2-fold lower: 32 µg/mL for the first, 64 µg/mL for the second.

`Cl.Nc1ncc(CCCCNC(=O)OCc2ccccc2)n1Cc1ccccc1` and `CCCCCn1c(CCCCNC(=O)OCc2ccccc2)cnc1N.Cl` are the same in MIC: 32 µg/mL for the first, 32 µg/mL for the second.

First: CCCCCCCCn1c(CCCCNC(=O)OCc2ccccc2)cnc1N.Cl
Second: CCCCCCCCn1c(-c2ccccc2)cnc1N.Cl
The MIC of the first is 4-fold lower: 16 µg/mL for the first, 64 µg/mL for the second.

Work on `CCCCCCCCCCn1c(CCCCCC)cnc1N.Cl` yielded an MIC of 1 µg/mL.

test system: Acinetobacter baumannii; test: Antimicrobial activity against Acinetobacter baumannii ATCC 19606 after 16 hrs by broth microdilution method; assay type: functional; conditions: ATCC 19606 = CIP 70.34 = JCM 6841, 16 h

First: CCCCCCc1cnc(N)n1CCCCC.Cl
Second: CCCCCCCCn1c(CCCCCC)cnc1N.Cl
The MIC of the first is 8-fold higher: 64 µg/mL for the first, 8 µg/mL for the second.

Compared with `CCCCCn1c(Cc2ccccc2)cnc1N.Cl`, `CCCCCCCCn1c(Cc2ccccc2)cnc1N.Cl` is 2-fold higher in MIC: 64 µg/mL for the first, 128 µg/mL for the second.

Going from `Cl.Nc1ncc(-c2ccccc2)n1CCCc1ccccc1` to `CCCCCn1c(-c2ccccc2)cnc1N.Cl`, the MIC rises from 32 µg/mL to 64 µg/mL (2-fold).

First: Cl.Nc1ncc(CCCCNC(=O)OCc2ccccc2)n1Cc1ccccc1
Second: CCCCCn1c(CCCCNC(=O)OCc2ccccc2)cnc1N.Cl
The MIC of the first is 2-fold lower: 64 µg/mL for the first, 128 µg/mL for the second.

Compared with `CCCCCCCCn1c(CCCCNC(=O)OCc2ccccc2)cnc1N.Cl`, `CCCCCCCCn1c(-c2ccccc2)cnc1N.Cl` is 4-fold lower in MIC: 64 µg/mL for the first, 16 µg/mL for the second.

`CCCCCCCCCCn1c(CCCCCC)cnc1N.Cl` gave an MIC of 8 µg/mL.

test system: Escherichia coli; test: Inhibition of Escherichia coli ATCC 35695 biofilm formation after 24 hrs by crystal violet reporter assay; assay type: functional; conditions: not given; note: test concentration or dose not given here

Going from `CCCCCCc1cnc(N)n1CCCCC.Cl` to `CCCCCCCCCCn1c(CCCCCC)cnc1N.Cl`, the “inhibition (INH)” value falls from 97% to 59%.

First: Cl.Nc1ncc(-c2ccccc2)n1CCCc1ccccc1
Second: CCCCCCCCn1c(CCCCNC(=O)OCc2ccccc2)cnc1N.Cl
The “inhibition (INH)” value of the first is higher: 94% for the first, 90% for the second.

test system: Klebsiella pneumoniae; test: Antimicrobial activity against carbapenem-resistant Klebsiella pneumoniae BAA-2146 expressing […] gene after 16 hrs by broth microdilution method; assay type: functional; conditions: BAA-2146, 16 h

First: CCCCCCc1cnc(N)n1CCCCC.Cl
Second: CCCCCCCCn1c(CCCCCC)cnc1N.Cl
The MIC of the first is 2-fold higher: 64 µg/mL for the first, 32 µg/mL for the second.

Compared with `CCCCCn1c(Cc2ccccc2)cnc1N.Cl`, `CCCCCCCCn1c(Cc2ccccc2)cnc1N.Cl` is higher in MIC: 128 µg/mL for the first, over 128 µg/mL for the second.

Going from `Cl.Nc1ncc(-c2ccccc2)n1CCCc1ccccc1` to `CCCCCn1c(-c2ccccc2)cnc1N.Cl`, the MIC rises from 128 µg/mL to over 128 µg/mL.

Going from `Cl.Nc1ncc(CCCCNC(=O)OCc2ccccc2)n1Cc1ccccc1` to `CCCCCn1c(CCCCNC(=O)OCc2ccccc2)cnc1N.Cl`, the MIC rises from 128 µg/mL to over 128 µg/mL.

`CCCCCCCCn1c(CCCCNC(=O)OCc2ccccc2)cnc1N.Cl` and `CCCCCCCCn1c(-c2ccccc2)cnc1N.Cl` are the same in MIC: 128 µg/mL for the first, 128 µg/mL for the second.

With `CCCCCCCCCCn1c(CCCCCC)cnc1N.Cl` the MIC was 32 µg/mL.

test system: Acinetobacter baumannii; test: Inhibition of Acinetobacter baumannii ATCC 19606 biofilm formation after 24 hrs by crystal violet reporter assay; assay type: functional, ATCC 19606 = CIP 70.34 = JCM 6841; conditions: not given; note: test concentration or dose not given here

Compared with `CCCCCCc1cnc(N)n1CCCCC.Cl`, `CCCCCCCCCCn1c(CCCCCC)cnc1N.Cl` is lower in “inhibition (INH)” value: 97% for the first, 91% for the second.

Going from `Cl.Nc1ncc(-c2ccccc2)n1CCCc1ccccc1` to `CCCCCCCCn1c(CCCCNC(=O)OCc2ccccc2)cnc1N.Cl`, the “inhibition (INH)” value falls from 97% to 93%.

test system: Acinetobacter baumannii; test: Antimicrobial activity against multidrug-resistant Acinetobacter baumannii BAA-1605 after 16 hrs by broth microdilution method; assay type: functional; conditions: BAA-1605, 16 h

First: CCCCCCc1cnc(N)n1CCCCC.Cl
Second: CCCCCCCCn1c(CCCCCC)cnc1N.Cl
The MIC of the first is 8-fold higher: 64 µg/mL for the first, 8 µg/mL for the second.

Compared with `CCCCCn1c(Cc2ccccc2)cnc1N.Cl`, `CCCCCCCCn1c(Cc2ccccc2)cnc1N.Cl` is 2-fold higher in MIC: 64 µg/mL for the first, 128 µg/mL for the second.

First: Cl.Nc1ncc(-c2ccccc2)n1CCCc1ccccc1
Second: CCCCCn1c(-c2ccccc2)cnc1N.Cl
The MIC of the first is 2-fold lower: 32 µg/mL for the first, 64 µg/mL for the second.

First: Cl.Nc1ncc(CCCCNC(=O)OCc2ccccc2)n1Cc1ccccc1
Second: CCCCCn1c(CCCCNC(=O)OCc2ccccc2)cnc1N.Cl
The MIC of the first is 2-fold lower: 64 µg/mL for the first, 128 µg/mL for the second.

`CCCCCCCCn1c(CCCCNC(=O)OCc2ccccc2)cnc1N.Cl` and `CCCCCCCCn1c(-c2ccccc2)cnc1N.Cl` are the same in MIC: 64 µg/mL for the first, 64 µg/mL for the second.

`CCCCCCCCCCn1c(CCCCCC)cnc1N.Cl` gave an MIC of 8 µg/mL.

test system: Staphylococcus epidermidis; test: Antimicrobial activity against methicillin-resistant Staphylococcus epidermidis ATCC 51625 after 16 hrs by broth microdilution method; assay type: functional; conditions: ATCC 51625, 16 h

Compared with `CCCCCCc1cnc(N)n1CCCCC.Cl`, `CCCCCCCCn1c(CCCCCC)cnc1N.Cl` is 16-fold lower in MIC: 32 µg/mL for the first, 2 µg/mL for the second.

Compared with `CCCCCn1c(Cc2ccccc2)cnc1N.Cl`, `CCCCCCCCn1c(Cc2ccccc2)cnc1N.Cl` is 2-fold higher in MIC: 64 µg/mL for the first, 128 µg/mL for the second.

Compared with `Cl.Nc1ncc(-c2ccccc2)n1CCCc1ccccc1`, `CCCCCn1c(-c2ccccc2)cnc1N.Cl` is 4-fold higher in MIC: 32 µg/mL for the first, 128 µg/mL for the second.

Going from `Cl.Nc1ncc(CCCCNC(=O)OCc2ccccc2)n1Cc1ccccc1` to `CCCCCn1c(CCCCNC(=O)OCc2ccccc2)cnc1N.Cl`, the MIC rises from 32 µg/mL to 64 µg/mL (2-fold).

Compared with `CCCCCCCCn1c(CCCCNC(=O)OCc2ccccc2)cnc1N.Cl`, `CCCCCCCCn1c(-c2ccccc2)cnc1N.Cl` is 4-fold higher in MIC: 16 µg/mL for the first, 64 µg/mL for the second.

`CCCCCCCCCCn1c(CCCCCC)cnc1N.Cl` showed an MIC of 1 µg/mL.

test system: Staphylococcus aureus; test: Inhibition of Staphylococcus aureus ATCC 29213 biofilm formation after 24 hrs by crystal violet reporter assay; assay type: functional; conditions: not given; note: test concentration or dose not given here

First: CCCCCCc1cnc(N)n1CCCCC.Cl
Second: CCCCCCCCCCn1c(CCCCCC)cnc1N.Cl
The “inhibition (INH)” value of the first is higher: 92% for the first, 73% for the second.

Going from `Cl.Nc1ncc(-c2ccccc2)n1CCCc1ccccc1` to `CCCCCCCCn1c(CCCCNC(=O)OCc2ccccc2)cnc1N.Cl`, the “inhibition (INH)” value falls from 95% to 91%.

test system: Staphylococcus aureus; test: Inhibition of Staphylococcus aureus BAA-44 biofilm formation after 24 hrs by crystal violet reporter assay; assay type: functional; conditions: not given; note: test concentration or dose not given here

Going from `CCCCCCc1cnc(N)n1CCCCC.Cl` to `CCCCCCCCCCn1c(CCCCCC)cnc1N.Cl`, the “inhibition (INH)” value falls from 98% to 83%.

Going from `Cl.Nc1ncc(-c2ccccc2)n1CCCc1ccccc1` to `CCCCCCCCn1c(CCCCNC(=O)OCc2ccccc2)cnc1N.Cl`, the “inhibition (INH)” value falls from 94% to 84%.

test system: Staphylococcus epidermidis; test: Antimicrobial activity against Staphylococcus epidermidis ATCC 29886 after 16 hrs by broth microdilution method; assay type: functional; conditions: ATCC 29886, 16 h

Going from `CCCCCCc1cnc(N)n1CCCCC.Cl` to `CCCCCCCCn1c(CCCCCC)cnc1N.Cl`, the MIC falls from 8 µg/mL to 0.125 µg/mL (64-fold).

First: CCCCCn1c(Cc2ccccc2)cnc1N.Cl
Second: CCCCCCCCn1c(Cc2ccccc2)cnc1N.Cl
The MIC of the first is 4-fold lower: 32 µg/mL for the first, 128 µg/mL for the second.

Going from `Cl.Nc1ncc(-c2ccccc2)n1CCCc1ccccc1` to `CCCCCn1c(-c2ccccc2)cnc1N.Cl`, the MIC rises from 8 µg/mL to 16 µg/mL (2-fold).

Going from `Cl.Nc1ncc(CCCCNC(=O)OCc2ccccc2)n1Cc1ccccc1` to `CCCCCn1c(CCCCNC(=O)OCc2ccccc2)cnc1N.Cl`, the MIC falls from 32 µg/mL to 16 µg/mL (2-fold).

First: CCCCCCCCn1c(CCCCNC(=O)OCc2ccccc2)cnc1N.Cl
Second: CCCCCCCCn1c(-c2ccccc2)cnc1N.Cl
The MIC of the first is 8-fold lower: 2 µg/mL for the first, 16 µg/mL for the second.

`CCCCCCCCCCn1c(CCCCCC)cnc1N.Cl` was tested, and the MIC was 0.25 µg/mL.

test system: Staphylococcus aureus; test: Antimicrobial activity against methicillin-resistant Staphylococcus aureus BAA-44 after 16 hrs by broth microdilution method; assay type: functional; conditions: BAA-44, 16 h

First: CCCCCCc1cnc(N)n1CCCCC.Cl
Second: CCCCCCCCn1c(CCCCCC)cnc1N.Cl
The MIC of the first is 16-fold higher: 32 µg/mL for the first, 2 µg/mL for the second.

`CCCCCn1c(Cc2ccccc2)cnc1N.Cl` and `CCCCCCCCn1c(Cc2ccccc2)cnc1N.Cl` are the same in MIC: 128 µg/mL for the first, 128 µg/mL for the second.

Compared with `Cl.Nc1ncc(-c2ccccc2)n1CCCc1ccccc1`, `CCCCCn1c(-c2ccccc2)cnc1N.Cl` is 2-fold higher in MIC: 32 µg/mL for the first, 64 µg/mL for the second.

Going from `Cl.Nc1ncc(CCCCNC(=O)OCc2ccccc2)n1Cc1ccccc1` to `CCCCCn1c(CCCCNC(=O)OCc2ccccc2)cnc1N.Cl`, the MIC rises from 32 µg/mL to 128 µg/mL (4-fold).

Compared with `CCCCCCCCn1c(CCCCNC(=O)OCc2ccccc2)cnc1N.Cl`, `CCCCCCCCn1c(-c2ccccc2)cnc1N.Cl` is 4-fold higher in MIC: 16 µg/mL for the first, 64 µg/mL for the second.

For `CCCCCCCCCCn1c(CCCCCC)cnc1N.Cl`, the MIC was 1 µg/mL.

test system: Escherichia coli; test: Antimicrobial activity against Escherichia coli ATCC 35695 after 16 hrs by broth microdilution method; assay type: functional; conditions: ATCC 35695, 16 h

First: CCCCCCc1cnc(N)n1CCCCC.Cl
Second: CCCCCCCCn1c(CCCCCC)cnc1N.Cl
The MIC of the first is 16-fold higher: 32 µg/mL for the first, 2 µg/mL for the second.

Going from `CCCCCn1c(Cc2ccccc2)cnc1N.Cl` to `CCCCCCCCn1c(Cc2ccccc2)cnc1N.Cl`, the MIC rises from 64 µg/mL to 128 µg/mL (2-fold).

Compared with `Cl.Nc1ncc(-c2ccccc2)n1CCCc1ccccc1`, `CCCCCn1c(-c2ccccc2)cnc1N.Cl` is 4-fold higher in MIC: 32 µg/mL for the first, 128 µg/mL for the second.

Compared with `Cl.Nc1ncc(CCCCNC(=O)OCc2ccccc2)n1Cc1ccccc1`, `CCCCCn1c(CCCCNC(=O)OCc2ccccc2)cnc1N.Cl` is 2-fold lower in MIC: 64 µg/mL for the first, 32 µg/mL for the second.

First: CCCCCCCCn1c(CCCCNC(=O)OCc2ccccc2)cnc1N.Cl
Second: CCCCCCCCn1c(-c2ccccc2)cnc1N.Cl
The MIC of the first is 8-fold lower: 8 µg/mL for the first, 64 µg/mL for the second.

`CCCCCCCCCCn1c(CCCCCC)cnc1N.Cl` showed an MIC of 1 µg/mL.

test system: Acinetobacter baumannii; test: Inhibition of Acinetobacter baumannii BAA-1605 biofilm formation after 24 hrs by crystal violet reporter assay; assay type: functional; conditions: not given; for INH: test concentration or dose not given here

With `CCCCCCc1cnc(N)n1CCCCC.Cl` the inhibition was “inactive”.

Compared with `Cl.Nc1ncc(-c2ccccc2)n1CCCc1ccccc1`, `CCCCCCCCn1c(CCCCNC(=O)OCc2ccccc2)cnc1N.Cl` is lower in “inhibition (INH)” value: 97% for the first, 91% for the second.

`CCCCCCCCCCn1c(CCCCCC)cnc1N.Cl` was tested, and the “inhibition (INH)” value was 97%.
